Results: PMC13185819, “De Novo Multi‐Mechanism Antimicrobial Peptide Design via Multimodal Deep Learning” (Advanced Science, 2026)
≈ marks a conversion by molar mass, not a printed value. Residues, ends and D or L forms follow the SMILES beside them.

Assays:
Assay type in all cases: cell-based
P. aeruginosa 119 = tested on: P. aeruginosa 119
Experimental: (§1) Standard strains included S. aureus ATCC33592, S. aureus CICC25138, and Salmonella enterica ATCC14028, which were purchased from the China Center of Industrial Culture Collection (CICC). Standard strains including E.coli CMCC44102, Salmonella enterica CMCC50071, and S. aureus CMCC26003 were purchased from the National Center for Medical Culture Collections (CMCC). […] All experiments using the above strains were carried out in a BSL‐2 laboratory. The clinical laboratory of Qilu Hospital detected bacterial resistance to various antibiotics. All strains were streaked on Nutrient Broth (NB) agar medium and incubated overnight at 37°C.
(§2) The antimicrobial activity of the peptides was examined in sterile 96‐well plates using the broth microdilution according to the CLSI standard. The colonies were suspended in saline solution, the turbidity was adjusted to McFarland 0.5 to reach a bacterial concentration of 10^8 CFU/mL, and again diluted 100 times for the inhibition test. Then, 50 µL of bacterial suspension at 1 × 10^6 CFU/mL was incubated with the same volume of different concentrations of peptide solution [serial twofold dilutions in Mueller–Hinton Broth (Hopebio)]. […] All experiments were performed with three independent replicates.

P. aeruginosa 116 = tested on: P. aeruginosa 116
Experimental: as §1, §2

S. aureus CMCC26003 = tested on: S. aureus CMCC26003
Experimental: as §1, §2

K. pneumoniae 7713 = tested on: K. pneumoniae 7713
Experimental: as §1, §2

E. faecium 1042 = tested on: E. faecium 1042
Experimental: as §1, §2

E. faecium 21 = tested on: E. faecium 21
Experimental: as §1, §2

S. aureus ATCC33592 = tested on: S. aureus ATCC33592
Experimental: as §1, §2

S. aureus CICC25138 = tested on: S. aureus CICC25138
Experimental: as §1, §2

E.coli 208 = tested on: E.coli 208
Experimental: as §1, §2

S. aureus 103 = tested on: S. aureus 103
Experimental: as §1, §2

E.coli 110 = tested on: E.coli 110
Experimental: as §1, §2

S. aureus 129 = tested on: S. aureus 129
Experimental: as §1, §2

P. aeruginosa 112 = tested on: P. aeruginosa 112
Experimental: as §1, §2

E.coli CMCC44102 = tested on: E.coli CMCC44102
Experimental: as §1, §2

SMILES	MIC (μg/mL) P. aeruginosa 119 (P. aeruginosa 119) [µg/mL]	MIC (μg/mL) P. aeruginosa 116 (P. aeruginosa 116) [µg/mL]	MIC (μg/mL) S. aureus CMCC26003 (S. aureus CMCC26003) [µg/mL]	MIC (μg/mL) K. pneumoniae 7713 (K. pneumoniae 7713) [µg/mL]	MIC (μg/mL) E. faecium 1042 (E. faecium 1042) [µg/mL]	MIC (μg/mL) E. faecium 21 (E. faecium 21) [µg/mL]	MIC (μg/mL) S. aureus ATCC33592 (S. aureus ATCC33592) [µg/mL]	MIC (μg/mL) S. aureus CICC25138 (S. aureus CICC25138) [µg/mL]	MIC (μg/mL) E.coli 208 (E.coli 208) [µg/mL]	MIC (μg/mL) S. aureus 103 (S. aureus 103) [µg/mL]	MIC (μg/mL) E.coli 110 (E.coli 110) [µg/mL]	MIC (μg/mL) S. aureus 129 (S. aureus 129) [µg/mL]	MIC (μg/mL) P. aeruginosa 112 (P. aeruginosa 112) [µg/mL]	MIC (μg/mL) E.coli CMCC44102 (E.coli CMCC44102) [µg/mL]
CC(C)C[C@H](NC(=O)[C@H](CC(C)C)NC(=O)[C@H](Cc1ccccc1)NC(=O)[C@H](CCCNC(=N)N)NC(=O)[C@H](CCCNC(=N)N)NC(=O)[C@H](CCCNC(=N)N)NC(=O)[C@H](CC(C)C)NC(=O)[C@H](CC(C)C)NC(=O)[C@H](CCCNC(=N)N)NC(=O)[C@H](CCCNC(=N)N)NC(=O)[C@H](CCC(N)=O)NC(=O)[C@H](Cc1c[nH]c2ccccc12)NC(=O)[C@@H](NC(=O)[C@H](CC(C)C)NC(=O)[C@H](CCCNC(=N)N)NC(=O)[C@H](Cc1ccc(O)cc1)NC(=O)[C@@H](N)CCC(N)=O)C(C)C)C(=O)N[C@@H](CCCCN)C(=O)N[C@@H](C)C(N)=O [QLX-3DV-13] (H-QYRLVWQRRLLRRRFLLKA-NH2)	16 (≈ 6.22 µM)	32 (≈ 12.4 µM)	4 (≈ 1.56 µM)	64 (≈ 24.9 µM)	2 (≈ 0.778 µM)	4 (≈ 1.56 µM)	64 (≈ 24.9 µM)	32 (≈ 12.4 µM)	16 (≈ 6.22 µM)	16 (≈ 6.22 µM)	8 (≈ 3.11 µM)	16 (≈ 6.22 µM)	2 (≈ 0.778 µM)	4 (≈ 1.56 µM)
CC[C@H](C)[C@H](NC(=O)[C@@H](NC(=O)[C@@H](N)CCCCN)C(C)C)C(=O)N[C@@H](CC(N)=O)C(=O)N[C@@H](Cc1ccc(O)cc1)C(=O)N[C@@H](CCCCN)C(=O)N[C@@H](CC(C)C)C(=O)N[C@@H](CCCNC(=N)N)C(=O)N[C@@H](Cc1ccccc1)C(=O)N[C@@H](Cc1ccccc1)C(=O)N[C@@H](Cc1c[nH]c2ccccc12)C(=O)N[C@@H](C)C(=O)N1CCC[C@H]1C(=O)N[C@@H](Cc1c[nH]c2ccccc12)C(=O)N[C@@H](Cc1ccccc1)C(=O)N[C@@H](CCCCN)C(=O)N[C@@H](CCCCN)C(=O)N[C@@H](CC(C)C)C(N)=O [QLX-3DV-15] (H-KVINYKLRFFWAPWFKKL-NH2)	64 (≈ 26.8 µM)	32 (≈ 13.4 µM)	4 (≈ 1.68 µM)	64 (≈ 26.8 µM)	4 (≈ 1.68 µM)	4 (≈ 1.68 µM)	16 (≈ 6.71 µM)	16 (≈ 6.71 µM)	4 (≈ 1.68 µM)	16 (≈ 6.71 µM)	8 (≈ 3.36 µM)	8 (≈ 3.36 µM)	4 (≈ 1.68 µM)	8 (≈ 3.36 µM)
CC[C@H](C)[C@H](NC(=O)[C@H](CC(C)C)NC(=O)[C@H](C)NC(=O)[C@H](CCCNC(=N)N)NC(=O)[C@@H](N)CCCNC(=N)N)C(=O)N[C@@H](Cc1ccc(O)cc1)C(=O)N[C@@H](CC(N)=O)C(=O)N[C@@H](CC(C)C)C(=O)N[C@H](C(=O)N[C@@H](CCCCN)C(=O)N[C@@H](CCCCN)C(=O)N[C@@H](Cc1c[nH]c2ccccc12)C(=O)N[C@@H](C)C(=O)N[C@@H](Cc1ccc(O)cc1)C(=O)N[C@@H](CO)C(=O)N[C@@H](Cc1ccc(O)cc1)C(=O)N[C@@H](CO)C(=O)N[C@@H](C)C(=O)N[C@H](C(N)=O)[C@@H](C)O)C(C)C [QLX-3DV-16] (H-RRALIYNLVKKWAYSYSAT-NH2)	128 (≈ 55.6 µM)	16 (≈ 6.95 µM)	4 (≈ 1.74 µM)	16 (≈ 6.95 µM)	16 (≈ 6.95 µM)	8 (≈ 3.47 µM)	128 (≈ 55.6 µM)	128 (≈ 55.6 µM)	16 (≈ 6.95 µM)	64 (≈ 27.8 µM)	8 (≈ 3.47 µM)	128 (≈ 55.6 µM)	16 (≈ 6.95 µM)	4 (≈ 1.74 µM)
